Assay results published in ChEMBL document CHEMBL2074065, “Pravastatin, an HMG-CoA reductase inhibitor, is transported by rat organic anion transporting polypeptide, oatp2” (Pharm Res, 1999).

What was measured:
[1] = target: T1, Solute carrier organic anion transporter family member 1A4 (Rattus norvegicus, UniProt O35913); assay: TP_TRANSPORTER: inhibition of Pravastatin uptake (Pravastatin: 30 uM, E217betaG: 300 uM) in Xenopus laevis oocytes; type: functional, cell-based; conditions: oocyte
T1 sequence (O35913 whole entry): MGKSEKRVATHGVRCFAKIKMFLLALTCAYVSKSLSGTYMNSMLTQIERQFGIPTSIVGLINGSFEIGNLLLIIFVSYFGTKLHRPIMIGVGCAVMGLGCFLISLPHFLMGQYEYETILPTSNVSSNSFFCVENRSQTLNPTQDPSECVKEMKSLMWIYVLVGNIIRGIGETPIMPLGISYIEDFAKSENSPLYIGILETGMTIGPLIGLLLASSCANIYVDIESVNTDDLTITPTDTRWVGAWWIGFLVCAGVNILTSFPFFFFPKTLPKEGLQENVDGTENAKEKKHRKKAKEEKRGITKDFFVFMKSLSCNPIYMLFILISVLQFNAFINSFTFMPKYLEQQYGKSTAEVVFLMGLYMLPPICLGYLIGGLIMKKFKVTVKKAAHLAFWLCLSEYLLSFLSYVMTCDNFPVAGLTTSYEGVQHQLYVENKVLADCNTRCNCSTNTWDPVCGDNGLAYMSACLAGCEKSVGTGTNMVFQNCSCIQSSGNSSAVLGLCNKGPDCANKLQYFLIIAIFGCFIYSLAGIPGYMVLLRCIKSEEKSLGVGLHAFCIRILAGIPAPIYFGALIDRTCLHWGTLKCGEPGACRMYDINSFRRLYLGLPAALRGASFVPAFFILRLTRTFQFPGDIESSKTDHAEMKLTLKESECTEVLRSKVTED

[2] = target: T1, Solute carrier organic anion transporter family member 1A4; assay: TP_TRANSPORTER: inhibition of Pravastatin uptake (Pravastatin: 30 uM, Simvastatin: 300 uM) in Xenopus laevis oocytes; type: functional, cell-based; conditions: oocyte
[3] = target: T1, Solute carrier organic anion transporter family member 1A4; assay: TP_TRANSPORTER: inhibition of Pravastatin uptake (Pravastatin: 30 uM, BSP: 300 uM) in Xenopus laevis oocytes; type: functional, cell-based; conditions: oocyte
[4] = substrate: CC[C@H](C)C(=O)O[C@H]1C[C@H](O)C=C2C=C[C@H](C)[C@H](CC[C@@H](O)C[C@@H](O)CC(=O)O)[C@H]21; assay: TP_TRANSPORTER: uptake in Xenopus laevis oocytes; type: functional, cell-based, Oocyte

C[C@]12CC[C@@H]3c4ccc(O)cc4CC[C@H]3[C@@H]1CC[C@@H]2O[C@@H]1O[C@H](C(=O)O)[C@@H](O)[C@H](O)[C@H]1O [ESTRADIOL 17B GLUCURONIDE]
Activity [1]: inhibitor [+]

CCC(C)(C)C(=O)O[C@H]1C[C@@H](C)C=C2C=C[C@H](C)[C@H](CC[C@@H]3C[C@@H](O)CC(=O)O3)[C@H]21 [SIMVASTATIN]
Activity [2]: inhibitor [+]

O=C1OC(c2ccc(O)c(S(=O)(=O)[O-])c2)(c2ccc(O)c(S(=O)(=O)[O-])c2)c2c(Br)c(Br)c(Br)c(Br)c21.[Na+].[Na+] [SULFOBROMOPHTHALEIN SODIUM]
Activity [3]: inhibitor [+]

B1: Solute carrier organic anion transporter family member 1A4 (Rattus norvegicus) (protein)
chain: MGKSEKRVATHGVRCFAKIKMFLLALTCAYVSKSLSGTYMNSMLTQIERQFGIPTSIVGLINGSFEIGNLLLIIFVSYFGTKLHRPIMIGVGCAVMGLGCFLISLPHFLMGQYEYETILPTSNVSSNSFFCVENRSQTLNPTQDPSECVKEMKSLMWIYVLVGNIIRGIGETPIMPLGISYIEDFAKSENSPLYIGILETGMTIGPLIGLLLASSCANIYVDIESVNTDDLTITPTDTRWVGAWWIGFLVCAGVNILTSFPFFFFPKTLPKEGLQENVDGTENAKEKKHRKKAKEEKRGITKDFFVFMKSLSCNPIYMLFILISVLQFNAFINSFTFMPKYLEQQYGKSTAEVVFLMGLYMLPPICLGYLIGGLIMKKFKVTVKKAAHLAFWLCLSEYLLSFLSYVMTCDNFPVAGLTTSYEGVQHQLYVENKVLADCNTRCNCSTNTWDPVCGDNGLAYMSACLAGCEKSVGTGTNMVFQNCSCIQSSGNSSAVLGLCNKGPDCANKLQYFLIIAIFGCFIYSLAGIPGYMVLLRCIKSEEKSLGVGLHAFCIRILAGIPAPIYFGALIDRTCLHWGTLKCGEPGACRMYDINSFRRLYLGLPAALRGASFVPAFFILRLTRTFQFPGDIESSKTDHAEMKLTLKESECTEVLRSKVTED
Km [4]: 37.5 µM
